Laboratory results taken from patent US8835466B2, “Synthesis and uses of pyroglutamic acid derivatives” (Prodimed, S.A., priority 2006, dated 2014).

Test system: Ehrlich tumour cells (murine mammary adenocarcinoma)
Test: Effect of isomers and BLAS on in vivo tumour growth, Ehrlich tumours (Example 9)
Set-up: species or system Balb/c mice
Conditions: for Tumour surface, overall values (Mean) / Tumour surface, overall values (Median) / Tumour volume, overall values (Mean) / Tumour volume, overall values (Median): 260 ng/mouse i.p. days 6, 7 and 14
From the text: This assay was made in order to compare the effect of each stereoisomer on in vivo tumour growth in mice with the effect of the mixture of all of them challenged with Ehlrich tumours. The same products, equipment, reagents, doses, vehicle and route of administration as in example 8 were used.
Mice were inoculated with Ehrlich tumour cells. It was described as a murine mammary adenocarcinoma. Ehrlich tumour is a murine mammary carcinoma originally raised in an outbred mouse, and therefore it belongs to the so-called non-specific tumours (Subiza J L, Viñuela J E, Rodriguez R, Gil J, Figueredo M A, de la Concha. E G. Development of splenic natural suppressor (NS) cells in Ehrlich tumor bearing mice. Int J Cancer, 44:307 315; 1989). It may grow across histocompatibility barriers and therefore is not mouse strain specific (Carry P J, Prescott D M, Ogilvie G K. Resistance to Ehrlich ascites tumor in a strain of dystrophic mice. Cancer Res., 39:2139-2140; 1979).
Ehrlich cells were maintained in vitro by serial passages every 3-4 days. Cultures were performed with RPMI medium medium (RPMI, 10% foetal calf serum, 2 mM L-glutamine, non essential aminoacids, 1 mM sodium pyruvate, 20 mM HEPES, 80 μg/mL gentamycin; all of them were purchased from Sigma, St. Louis, Mo., USA) by seeding 5×10^6 cells onto 75 cm^2 culture flasks. Tumour cells collected from 48 hour cultures were used as source of cells for the studies described below.
Tumours were established by subcutaneous inoculation in the right hind flank. Mice (Balb/c) were inoculated with 0.2 mL containing 2×10^5 viable Ehrlich cells. The day of subcutaneous inoculation will be considered Day 0 of the test.
Mice were observed daily and the tumour size recorded twice a week. This was carried out by measuring two perpendicular diameters (L/W) with a calliper. These measures were used to obtain both tumour surface and volume: Tumour surface=L×W(mm^2) Tumour volume=L×W^2×½(mm^3)
Results were expressed as single values and/or as the mean±SD or median from each experimental group.
A case-control study was performed with treated and control mice in order to determine whether differences between BLAS or each diferent stereoisomer and administration of placebo were present. […] The U-test of Mann Withney was chosen for being one of the better known non-parametrical tests, anyway, results for this test are equivalent both to those of Wilcoxon's sum of ranges and Kruskal-Wallis two-groups test.

[1] = day 13 after tumour inoculation
[2] = day 16 after tumour inoculation
[3] = day 20 after tumour inoculation
[4] = day 23 after tumour inoculation
[5] = day 29 after tumour inoculation
[6] = day 31 after tumour inoculation
[7] = day 35 after tumour inoculation
[8] = day 38 after tumour inoculation

With `Br.N[C@@]1(C[n+]2ccccc2)C[C@H](C(=O)O)NC1=O.[Br-]` (single isomer, unassigned; isomer 2) [isomer 2, 3R,5R-1-(3-Amino-5-carboxy-2-oxopyrrolidin-3-ylmethyl)pyridinium bromide hidrobromide] the “Inhibition of the in vivo growth of Ehrlich tumour cells, in words” value (260 ng i.p. days 6, 7 and 14) was “inhibit the in vivo growth”, the “Tumour surface, overall values (Mean)” value (day 0 after tumour inoculation) was 0 mm^2 and the “Tumour surface, overall values (Median)” value (day 0 after tumour inoculation) was 0 mm^2. For the same molecule, the “Tumour volume, overall values (Mean)” value (day 0 after tumour inoculation) was 0 mm^3, the “Tumour volume, overall values (Median)” value (day 0 after tumour inoculation) was 0 mm^3 and the “Tumour surface, overall values (Mean)” value (day 8 after tumour inoculation) was 6.69 mm^2. The “Tumour surface, overall values (Median)” value (day 8 after tumour inoculation) was 4 mm^2, the “Tumour volume, overall values (Mean)” value (day 8 after tumour inoculation) was 10.97 mm^3 and the “Tumour volume, overall values (Median)” value (day 8 after tumour inoculation) was 4 mm^3. For the same molecule, the “Tumour surface, overall values (Mean)” value [1] was 14.81 mm^2, the “Tumour surface, overall values (Median)” value [1] was 16 mm^2 and the “Tumour volume, overall values (Mean)” value [1] was 32.16 mm^3. For the same molecule, the “Tumour volume, overall values (Median)” value [1] was 32 mm^3, the “Tumour surface, overall values (Mean)” value [2] was 20.37 mm^2 and the “Tumour surface, overall values (Median)” value [2] was 20 mm^2. The “Tumour volume, overall values (Mean)” value [2] was 51.87 mm^3, the “Tumour volume, overall values (Median)” value [2] was 40 mm^3 and the “Tumour surface, overall values (Mean)” value [3] was 28.37 mm^2. The “Tumour surface, overall values (Median)” value [3] was 27.5 mm^2, the “Tumour volume, overall values (Mean)” value [3] was 81.81 mm^3 and the “Tumour volume, overall values (Median)” value [3] was 68.75 mm^3. For the same molecule, the “Tumour surface, overall values (Mean)” value [4] was 35.75 mm^2, the “Tumour surface, overall values (Median)” value [4] was 33 mm^2 and the “Tumour volume, overall values (Mean)” value [4] was 113.75 mm^3. For the same molecule, the “Tumour volume, overall values (Median)” value [4] was 91.5 mm^3, the “Tumour surface, overall values (Mean)” value [5] was 46.12 mm^2 and the “Tumour volume, overall values (Mean)” value [5] was 167 mm^3. For the same molecule, the “Tumour surface, overall values (Mean)” value [6] was 50.06 mm^2, the “Tumour surface, overall values (Median)” value [6] was 45 mm^2 and the “Tumour volume, overall values (Mean)” value [6] was 191.91 mm^3. For the same molecule, the “Tumour volume, overall values (Median)” value [6] was 135 mm^3, the “Tumour surface, overall values (Mean)” value [7] was 60.25 mm^2 and the “Tumour surface, overall values (Median)” value [7] was 51 mm^2. For the same molecule, the “Tumour volume, overall values (Mean)” value [7] was 258.06 mm^3, the “Tumour volume, overall values (Median)” value [7] was 153 mm^3 and the “Tumour surface, overall values (Mean)” value [8] was 75.37 mm^2. For the same molecule, the “Tumour surface, overall values (Median)” value [8] was 71 mm^2, the “Tumour volume, overall values (Mean)” value [8] was 372.5 mm^3 and the “Tumour volume, overall values (Median)” value [8] was 266.5 mm^3. For the same molecule, the “Differences in Ehrlich tumour growth rate vs. placebo, statistical significance p (Mann-Whitney U test)” value (either in surface or volume, all days scored after the day 13th) was < 0.05.
In the case of `Br.N[C@]1(C[n+]2ccccc2)C[C@@H](C(=O)O)NC1=O.[Br-]` (single isomer, unassigned; isomer 3) [isomer 3, 3S,5S-1-(3-Amino-5-carboxy-2-oxopyrrolidin-3-ylmethyl)pyridinium bromide hidrobromide], the “Inhibition of the in vivo growth of Ehrlich tumour cells, in words” value (260 ng i.p. days 6, 7 and 14) is reported as “inhibit the in vivo growth”, the “Inhibitory effect on Ehrlich tumour growth compared among treatments, in words” value (260 ng i.p. days 6, 7 and 14) is reported as “highest inhibitory effect” and the “Tumour surface, overall values (Mean)” value (day 0 after tumour inoculation) is reported as 0 mm^2. For the same molecule, the “Tumour surface, overall values (Median)” value (day 0 after tumour inoculation) was 0 mm^2, the “Tumour volume, overall values (Mean)” value (day 0 after tumour inoculation) was 0 mm^3 and the “Tumour volume, overall values (Median)” value (day 0 after tumour inoculation) was 0 mm^3. For the same molecule, the “Tumour surface, overall values (Mean)” value (day 8 after tumour inoculation) was 3.62 mm^2, the “Tumour surface, overall values (Median)” value (day 8 after tumour inoculation) was 0 mm^2 and the “Tumour volume, overall values (Mean)” value (day 8 after tumour inoculation) was 6 mm^3. For the same molecule, the “Tumour volume, overall values (Median)” value (day 8 after tumour inoculation) was 0 mm^3, the “Tumour surface, overall values (Mean)” value [1] was 10.94 mm^2 and the “Tumour surface, overall values (Median)” value [1] was 9 mm^2. The “Tumour volume, overall values (Mean)” value [1] was 23.53 mm^3, the “Tumour volume, overall values (Median)” value [1] was 13.5 mm^3 and the “Tumour surface, overall values (Mean)” value [2] was 16.5 mm^2. For the same molecule, the “Tumour surface, overall values (Median)” value [2] was 16 mm^2, the “Tumour volume, overall values (Mean)” value [2] was 37.12 mm^3 and the “Tumour volume, overall values (Median)” value [2] was 32 mm^3. The “Tumour surface, overall values (Mean)” value [3] was 24.12 mm^2, the “Tumour surface, overall values (Median)” value [3] was 20 mm^2 and the “Tumour volume, overall values (Mean)” value [3] was 65.12 mm^3. The “Tumour volume, overall values (Median)” value [3] was 40 mm^3, the “Tumour surface, overall values (Mean)” value [4] was 32.25 mm^2 and the “Tumour surface, overall values (Median)” value [4] was 25 mm^2. The “Tumour volume, overall values (Mean)” value [4] was 100.44 mm^3, the “Tumour volume, overall values (Median)” value [4] was 62.5 mm^3 and the “Tumour surface, overall values (Mean)” value [5] was 42.94 mm^2. The “Tumour surface, overall values (Median)” value [5] was 27.5 mm^2, the “Tumour volume, overall values (Mean)” value [5] was 156.34 mm^3 and the “Tumour volume, overall values (Median)” value [5] was 68.75 mm^3. The “Tumour surface, overall values (Mean)” value [6] was 53.37 mm^2, the “Tumour surface, overall values (Median)” value [6] was 36 mm^2 and the “Tumour volume, overall values (Mean)” value [6] was 213.31 mm^3. For the same molecule, the “Tumour volume, overall values (Median)” value [6] was 100.5 mm^3, the “Tumour surface, overall values (Mean)” value [7] was 66 mm^2 and the “Tumour surface, overall values (Median)” value [7] was 43 mm^2. The “Tumour volume, overall values (Mean)” value [7] was 293.87 mm^3, the “Tumour volume, overall values (Median)” value [7] was 135.5 mm^3 and the “Tumour surface, overall values (Mean)” value [8] was 79.37 mm^2. The “Tumour surface, overall values (Median)” value [8] was 49.5 mm^2, the “Tumour volume, overall values (Mean)” value [8] was 387.69 mm^3 and the “Tumour volume, overall values (Median)” value [8] was 164.25 mm^3. For the same molecule, the “Differences in Ehrlich tumour growth rate vs. placebo, statistical significance p (Mann-Whitney U test)” value (either in surface or volume, all days scored after the day 8th) was < 0.05 and the “Differences in Ehrlich tumour growth rate BLAS vs. isomer 3, statistical significance p (Mann-Whitney U test)” value (either in surface or volume, days 13th, 16th, 20th and 23th) was < 0.05.
